ChEMBL document CHEMBL5729081, “Morpholine derivative” (2022)

Molecular target: hERG (KCNH2) potassium channel (Homo sapiens, UniProt Q12809)
Assay: For electrophysiological measurements cells were seeded onto 35 mm sterile culture dishes containing 2 ml culture medium without Hygromycin B. Cells were cultivated at a density that enabled single cells (without visible connections to neighbouring cells) to be measured. […] The cells were continuously maintained in and passaged in sterile culture flasks containing nutrient mixture F-12 (DMEM/F-12 with L-Glutamine) supplemented with 10% foetal bovine serum and 10% penicillin/streptomycin solution. […] The 35 mm culture dishes upon which cells were seeded at a density allowing single cells to be recorded were placed on the dish holder of the microscope and continuously perfused (at approximately 1 ml/min) with the bath solution (sodium chloride 150 mM, potassium chloride 4 mM, calcium chloride 1.2 mM, magnesium chloride 1 mM, HEPES 10 mM, pH (NaOH) 7.4) at near physiological temperature (36±1° C.). After formation of a Gigaohm seal between the patch electrodes and individual hERG stably transfected CHO cells (pipette resistance range: 2.0 MΩ-7.0 MΩ; seal resistance range: >1 GΩ) the cell membrane across the pipette tip was ruptured to assure electrical access to the cell interior (whole-cell patch-configuration). In case the quality of the seal was poor, the process of seal formation was repeated with a different cell and a new pipette. […] […]
Assay type: cell-based
Settings: CHO cells stably expressing the hERG channel, pH 7.4

Chain of hERG (KCNH2) potassium channel (Q12809 whole entry, the tested form may be a part): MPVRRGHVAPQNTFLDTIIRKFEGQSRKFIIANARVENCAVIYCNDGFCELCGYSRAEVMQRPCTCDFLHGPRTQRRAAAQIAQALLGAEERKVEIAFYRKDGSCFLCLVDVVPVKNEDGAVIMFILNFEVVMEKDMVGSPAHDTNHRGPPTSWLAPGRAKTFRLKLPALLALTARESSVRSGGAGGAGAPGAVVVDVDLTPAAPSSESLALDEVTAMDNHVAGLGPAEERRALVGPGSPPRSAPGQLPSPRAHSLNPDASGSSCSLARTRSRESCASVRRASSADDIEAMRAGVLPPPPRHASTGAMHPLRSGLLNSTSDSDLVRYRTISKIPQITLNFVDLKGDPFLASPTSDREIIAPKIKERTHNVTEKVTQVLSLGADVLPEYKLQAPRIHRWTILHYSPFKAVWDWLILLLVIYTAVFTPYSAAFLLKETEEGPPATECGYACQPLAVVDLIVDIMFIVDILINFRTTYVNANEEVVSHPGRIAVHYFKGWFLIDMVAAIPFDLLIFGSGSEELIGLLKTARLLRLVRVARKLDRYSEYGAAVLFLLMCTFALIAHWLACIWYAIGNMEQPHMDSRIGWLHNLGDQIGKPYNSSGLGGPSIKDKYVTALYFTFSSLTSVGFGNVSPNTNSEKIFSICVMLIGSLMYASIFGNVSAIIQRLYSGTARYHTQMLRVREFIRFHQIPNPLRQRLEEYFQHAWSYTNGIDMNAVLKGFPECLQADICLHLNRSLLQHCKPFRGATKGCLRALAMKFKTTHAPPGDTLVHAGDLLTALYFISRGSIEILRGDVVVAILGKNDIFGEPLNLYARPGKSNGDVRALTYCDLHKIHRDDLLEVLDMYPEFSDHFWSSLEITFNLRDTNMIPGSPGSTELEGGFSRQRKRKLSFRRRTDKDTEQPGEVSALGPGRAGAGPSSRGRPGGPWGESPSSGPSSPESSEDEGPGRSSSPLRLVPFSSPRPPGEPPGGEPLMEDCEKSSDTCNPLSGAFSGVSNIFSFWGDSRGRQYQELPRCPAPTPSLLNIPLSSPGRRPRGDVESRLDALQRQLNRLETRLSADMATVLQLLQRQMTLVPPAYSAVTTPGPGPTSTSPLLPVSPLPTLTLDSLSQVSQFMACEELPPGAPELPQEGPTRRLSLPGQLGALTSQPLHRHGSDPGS

O=C(Nc1ccc([C@H]2CNCCO2)cc1)c1ccc(Cl)nc1
IC50: 14.3 µM
